Source: PubChem BioAssay AID2060512 (Molecular Pharmacology Branch, DTP, NCI, 2025)
pIC50: −log10 of the molar value.

Test system: 186277-243-T-J2-PDC complex spheroid viability
Assay: Anticancer human tumor 186277-243-T-J2-PDC patient-derived colon adenocarcinoma cell line growth inhibition [GQUAD]
Conditions: for pIC50: curve of first compound; for viability, T/C: stronger effect = lower value
Summary of the method: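 Tumor cells were grown as complex spheroids with HUVEC endothelial cells and mesenchymal stem cells as stroma. G-quadruplex stabilizers were combined with targeted agents over half-log dilutions from near the clinical Cmax, or from 10 microM.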

[1] = second compound 0.0316 µM, first compound 0.0316 µM
[2] = second compound 0.0316 µM, first compound 0.1 µM
[3] = second compound 0.0316 µM, first compound 0.316 µM
[4] = second compound 0.0316 µM, first compound 1 µM
[5] = second compound 0.0316 µM, first compound 3.16 µM
[6] = second compound 0.0316 µM, first compound 10 µM
[7] = second compound 0.1 µM, first compound 0.0316 µM
[8] = second compound 0.1 µM, first compound 0.1 µM
[9] = second compound 0.1 µM, first compound 0.316 µM
[10] = second compound 0.1 µM, first compound 1 µM
[11] = second compound 0.1 µM, first compound 3.16 µM
[12] = second compound 0.1 µM, first compound 10 µM
[13] = second compound 0.316 µM, first compound 0.0316 µM
[14] = second compound 0.316 µM, first compound 0.1 µM
[15] = second compound 0.316 µM, first compound 0.316 µM
[16] = second compound 0.316 µM, first compound 1 µM
[17] = second compound 0.316 µM, first compound 3.16 µM
[18] = second compound 0.316 µM, first compound 10 µM
[19] = second compound 1 µM, first compound 0.0316 µM
[20] = second compound 1 µM, first compound 0.1 µM
[21] = second compound 1 µM, first compound 0.316 µM
[22] = second compound 1 µM, first compound 1 µM
[23] = second compound 1 µM, first compound 3.16 µM
[24] = second compound 1 µM, first compound 10 µM
[25] = second compound 3.16 µM, first compound 0.0316 µM
[26] = second compound 3.16 µM, first compound 0.1 µM
[27] = second compound 3.16 µM, first compound 0.316 µM
[28] = second compound 3.16 µM, first compound 1 µM
[29] = second compound 3.16 µM, first compound 3.16 µM
[30] = second compound 3.16 µM, first compound 10 µM
[31] = second compound 10 µM, first compound 0.0316 µM
[32] = second compound 10 µM, first compound 0.1 µM
[33] = second compound 10 µM, first compound 0.316 µM
[34] = second compound 10 µM, first compound 1 µM
[35] = second compound 10 µM, first compound 3.16 µM
[36] = second compound 10 µM, first compound 10 µM
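Note: spheroids exposed to drugs for 7 days.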
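Throughout, for viability, T/C: 100% = DMSO vehicle control viability.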

## CC1COCCN1c1cc(C2(S(C)(=N)=O)CC2)nc(-c2ccnc3[nH]ccc23)n1 (stereo unspecified) + CN(C)c1ccc(Nc2c3ccc(NC(=O)CCN4CCCC4)cc3nc3cc(NC(=O)CCN4CCCC4)ccc23)cc1
Second compound 0.0316 µM
  pIC50: 6.10
Second compound 0.1 µM
  pIC50: 6.13
Second compound 0.316 µM
  pIC50: 5.87
Second compound 1 µM
  pIC50: 6.01
Second compound 3.16 µM
  pIC50: 6.01
Second compound 10 µM
  pIC50: 6.08
[1]
  viability, T/C: 95.5%
[2]
  viability, T/C: 100%
[3]
  viability, T/C: 117%
[4]
  viability, T/C: 37.2%
[5]
  viability, T/C: 8.85%
[6]
  viability, T/C: 6.06%
[7]
  viability, T/C: 105%
[8]
  viability, T/C: 102%
[9]
  viability, T/C: 89.4%
[10]
  viability, T/C: 37%
[11]
  viability, T/C: 7.6%
[12]
  viability, T/C: 5.85%
[13]
  viability, T/C: 85.2%
[14]
  viability, T/C: 99.5%
[15]
  viability, T/C: 92.7%
[16]
  viability, T/C: 65.2%
[17]
  viability, T/C: 7.48%
[18]
  viability, T/C: 5.05%
[19]
  viability, T/C: 91%
[20]
  viability, T/C: 89.8%
[21]
  viability, T/C: 96.2%
[22]
  viability, T/C: 48.9%
[23]
  viability, T/C: 8.32%
[24]
  viability, T/C: 5.51%
[25]
  viability, T/C: 91%
[26]
  viability, T/C: 103%
[27]
  viability, T/C: 98.8%
[28]
  viability, T/C: 49.4%
[29]
  viability, T/C: 7.66%
[30]
  viability, T/C: 5.17%
[31]
  viability, T/C: 85.3%
[32]
  viability, T/C: 94%
[33]
  viability, T/C: 110%
[34]
  viability, T/C: 41.7%
[35]
  viability, T/C: 9.87%
[36]
  viability, T/C: 5.6%

## CC(=O)O[C@H]1C(=O)[C@@]2(C)[C@H]([C@H](OC(=O)c3ccccc3)[C@]3(O)C[C@H](OC(=O)[C@H](O)[C@@H](NC(=O)c4ccccc4)c4ccccc4)C(C)=C1C3(C)C)[C@]1(OC(C)=O)CO[C@@H]1C[C@@H]2O + CN(C)c1ccc(Nc2c3ccc(NC(=O)CCN4CCCC4)cc3nc3cc(NC(=O)CCN4CCCC4)ccc23)cc1
Second compound 0.0316 µM
  pIC50: > 7.50
Second compound 0.1 µM
  pIC50: > 7.50
Second compound 0.316 µM
  pIC50: > 7.50
Second compound 1 µM
  pIC50: > 7.50
Second compound 3.16 µM
  pIC50: > 7.50
Second compound 10 µM
  pIC50: > 7.50
[1]
  viability, T/C: 19.8%
[2]
  viability, T/C: 6.1%
[3]
  viability, T/C: 5.38%
[4]
  viability, T/C: 3.55%
[5]
  viability, T/C: 3.54%
[6]
  viability, T/C: 3.9%
[7]
  viability, T/C: 18.9%
[8]
  viability, T/C: 7.57%
[9]
  viability, T/C: 4.53%
[10]
  viability, T/C: 3.24%
[11]
  viability, T/C: 4.81%
[12]
  viability, T/C: 4.04%
[13]
  viability, T/C: 20.1%
[14]
  viability, T/C: 7.12%
[15]
  viability, T/C: 4.2%
[16]
  viability, T/C: 4.04%
[17]
  viability, T/C: 4.15%
[18]
  viability, T/C: 3.98%
[19]
  viability, T/C: 11.8%
[20]
  viability, T/C: 7.8%
[21]
  viability, T/C: 5.59%
[22]
  viability, T/C: 3.93%
[23]
  viability, T/C: 4.16%
[24]
  viability, T/C: 4.31%
[25]
  viability, T/C: 19.9%
[26]
  viability, T/C: 6.16%
[27]
  viability, T/C: 3.9%
[28]
  viability, T/C: 4.93%
[29]
  viability, T/C: 4.08%
[30]
  viability, T/C: 4.24%
[31]
  viability, T/C: 19.5%
[32]
  viability, T/C: 6.64%
[33]
  viability, T/C: 3.63%
[34]
  viability, T/C: 3.44%
[35]
  viability, T/C: 2.96%
[36]
  viability, T/C: 2.41%

## Cn1ncnc1[C@H]1c2n[nH]c(=O)c3cc(F)cc(c23)N[C@@H]1c1ccc(F)cc1 + CN(C)c1ccc(Nc2c3ccc(NC(=O)CCN4CCCC4)cc3nc3cc(NC(=O)CCN4CCCC4)ccc23)cc1
Second compound 0.0316 µM
  pIC50: < 6.50
Second compound 0.1 µM
  pIC50: < 6.50
Second compound 0.316 µM
  pIC50: < 6.50
Second compound 1 µM
  pIC50: < 6.50
Second compound 3.16 µM
  pIC50: < 6.50
Second compound 10 µM
  pIC50: < 6.50
Second compound 0.0316 µM, first compound 0.000999 µM
  viability, T/C: 91.8%
Second compound 0.0316 µM, first compound 0.00316 µM
  viability, T/C: 104%
Second compound 0.0316 µM, first compound 0.00999 µM
  viability, T/C: 108%
[1]
  viability, T/C: 80.6%
Second compound 0.0316 µM, first compound 0.0999 µM
  viability, T/C: 86.6%
[3]
  viability, T/C: 76.8%
Second compound 0.1 µM, first compound 0.000999 µM
  viability, T/C: 108%
Second compound 0.1 µM, first compound 0.00316 µM
  viability, T/C: 113%
Second compound 0.1 µM, first compound 0.00999 µM
  viability, T/C: 96.2%
[7]
  viability, T/C: 114%
Second compound 0.1 µM, first compound 0.0999 µM
  viability, T/C: 90.2%
[9]
  viability, T/C: 82%
Second compound 0.316 µM, first compound 0.000999 µM
  viability, T/C: 83.8%
Second compound 0.316 µM, first compound 0.00316 µM
  viability, T/C: 108%
Second compound 0.316 µM, first compound 0.00999 µM
  viability, T/C: 102%
[13]
  viability, T/C: 115%
Second compound 0.316 µM, first compound 0.0999 µM
  viability, T/C: 92.1%
[15]
  viability, T/C: 86.8%
Second compound 1 µM, first compound 0.000999 µM
  viability, T/C: 105%
Second compound 1 µM, first compound 0.00316 µM
  viability, T/C: 91.8%
Second compound 1 µM, first compound 0.00999 µM
  viability, T/C: 97.6%
[19]
  viability, T/C: 106%
Second compound 1 µM, first compound 0.0999 µM
  viability, T/C: 85.6%
[21]
  viability, T/C: 85%
Second compound 3.16 µM, first compound 0.000999 µM
  viability, T/C: 101%
Second compound 3.16 µM, first compound 0.00316 µM
  viability, T/C: 94.7%
Second compound 3.16 µM, first compound 0.00999 µM
  viability, T/C: 107%
[25]
  viability, T/C: 94%
Second compound 3.16 µM, first compound 0.0999 µM
  viability, T/C: 85.5%
[27]
  viability, T/C: 94.6%
Second compound 10 µM, first compound 0.000999 µM
  viability, T/C: 114%
Second compound 10 µM, first compound 0.00316 µM
  viability, T/C: 92.3%
Second compound 10 µM, first compound 0.00999 µM
  viability, T/C: 99.2%
[31]
  viability, T/C: 106%
Second compound 10 µM, first compound 0.0999 µM
  viability, T/C: 83.6%
[33]
  viability, T/C: 82%
